Source: publication PMC9072872, “Structure-based design of nucleoside-derived analogues as sulfotransferase inhibitors” (RSC Advances, 2019)

Assays:
PKA = PKA (Homo sapiens, UniProt P17612); assay: PKA kinase counter-screen; type: biochemical; settings: compound 400 μM, PKA 1 nM, ATP 5 μM, 30 min, 20 °C
Source text: (§1) Fig. 5 Immunological evaluation of TPST1 inhibition towards substrate and a Ser/Thr protein kinase counter-screen. (A) Immunoblots evaluating TPST1 sulfotransferase activity in the presence of a panel of PAP- and PAPS-mimetic compounds. […] After termination of the reaction using SDS-PAGE sample buffer, tyrosine sulfation was visualised by immunoblotting using a monoclonal sulfotyrosine antibody (top panel), with equal GST-CC4-tide and TPST1 loading confirmed using an antibody to detect 6xHis tagged proteins (bottom panel). (B) Enzymatic inhibition of PKA catalytic activity by a panel of PAP- and PAPS-mimetic compounds. PKA kinase (1 nM) was incubated with ATP (5 μM) in the presence of the appropriate nucleoside analogue (400 μM) for 30 min at 20 °C. PKA activity was calculated in real-time using fluorescently-labelled substrate peptide (2 μM) and normalised to DMSO (4% v/v) or buffer control.[77] Data in B is mean and SD of 3 individual experiments. Staurosporine is included at 40 μM as a generic inhibitor of kinase activity.
Finally, a simple counter-screen was set up employing PKA. This was carried out in order to assess relative specificity for ST inhibition, and using the generic kinase inhibitor staurosporine A as a positive control and PAP and CoA as negative controls, neither of which bind nor inhibit PKA. Compounds were screened at 400 μM in the presence 1 nM PKA.

TPST1 = target: T1, TPST1 (Homo sapiens, UniProt O60507); assay: Immunoblot of GST-CC4tide tyrosine sulfation by TPST1 (anti-sulfotyrosine antibody); type: biochemical; settings: compound 400 μM, GST-CC4-tide 1 μg, TPST1 0.2 μg, PAPS 5 μM, 15 min
T1 construct: Human TPST1 (residues Lys43-Leu360) enzyme was purified as a recombinant protein; made in house
T1 sequence (O60507 43-360): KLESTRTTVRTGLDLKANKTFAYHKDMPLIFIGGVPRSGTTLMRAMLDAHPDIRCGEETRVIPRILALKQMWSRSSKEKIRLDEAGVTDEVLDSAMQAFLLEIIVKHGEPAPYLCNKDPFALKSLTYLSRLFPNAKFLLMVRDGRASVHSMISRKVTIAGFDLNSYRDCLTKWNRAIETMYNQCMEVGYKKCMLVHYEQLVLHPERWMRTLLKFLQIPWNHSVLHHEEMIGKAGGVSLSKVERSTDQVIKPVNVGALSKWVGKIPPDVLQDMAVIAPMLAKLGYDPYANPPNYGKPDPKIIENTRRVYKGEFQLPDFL
Protocol: In order to further assess TPST1 inhibition by 2′-deoxy-PAP and compounds 1–14 using a complementary assay, immunoblotting of a TPST1 protein substrate (GST-CC4tide) was implemented with a monoclonal antibody that specifically recognises sulfotyrosine, using PAP as positive control (Fig. 5A). Compounds were screened at 400 μM in the assay. In common with the […] enzyme assay using a synthetic peptide, a broad range of inhibitory activities was observed.
as §1, with “activity. […]” for “activity.”
All standard laboratory biochemicals, were purchased from Sigma, and were of the highest analytical quality.
5'-phosphosulfate, lithium salt hydrate, PAP (adenosine 3',5'-diphosphate, disodium salt), CoA (coenzymeA, sodium salt), ATP (adenosine 5’-triphosphate, disodium salt hydrate) were all purchased from Sigma and stored at -80 °C to minimise degradation.
Recombinant Protein Production and SDS-PAGE
Human TPST1 (residues Lys43-Leu360) enzyme was purified as a recombinant protein containing an N-terminal 6xHis tag as previously described. […]
pMAL-c2x plasmid encoding an N-terminal Maltose Binding Protein (MBP) affinity tag.6 Glutathione-S-transferase (GST) tagged CC4-tide ([…]) was cloned into pOPINJ (OPPF-UK) and […]
affinity purified from BL21 (DE3) pLysS E. coli using Glutathione-Sepharose 4B (GE Healthcare). 5 For SDS-PAGE, proteins were denatured in Laemmli sample buffer, heated at 95 °C for 5 min and then analysed by SDS-PAGE with 10% (v/v) polyacrylamide gels. Gels were stained and de-stained using a standard Coomassie Brilliant Blue protocol. To evaluate protein sulfation by immunoblotting, standard western blotting procedures were followed using monoclonal anti-sulfotyrosine ant ibody clone o-1C-A2 (Millipore) generated using a phage display procedure and sulfotyrosine selection peptide antigens7 in the presence of appropriate positive and negative controls, and modifications visua lised using ECL […]
Data was normalized […]
with respect to these control assays, with sulfate incorporation into the substr ate limited to ~ 20% to prevent depletion of PAPS and to ensure assay linearity. K m and IC50 values were determined by non-linear regression analysis with GraphPad Prism software. […]

| Structure (SMILES) | inhibitory activity towards PKA (PKA) | suppression of tyrosine sulfation (immunoblot) (TPST1) |
| --- | --- | --- |
| Nc1ncnc2c1ncn2[C@H]1C[C@H](OP(=O)(O)O)[C@@H](COP(=O)(O)O)O1 [2′-deoxy-PAP] | no activity | complete suppression |
| Nc1ncnc2c1ncn2[C@H]1C[C@H](O)[C@@H](Cn2cc(P(=O)(O)O)nn2)O1 [Compound 11] |  | inactive |
| Nc1ncnc2c1ncn2[C@H]1C[C@H](O)[C@@H](Cn2cc(P(=O)(O)OCc3ccccc3)nn2)O1 [Compound 13] |  | partial suppression |
| Nc1ncnc2c1ncn2[C@H]1C[C@H](OP(=O)(O)O)[C@@H](Cn2cc(P(=O)(O)O)nn2)O1 [Compound 12] |  | partial suppression |
